Assay results from ChEMBL document CHEMBL1201862, “PubChem BioAssay data set” (2004).
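Briefly, cells in 96-well plates were exposed to five compound concentrations for 48 h, and endpoints were estimated by linear interpolation. Abbreviation: GI50, concentration required for 50% inhibition of growth.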 The source made the active and inactive calls. Rule as the data show it: active = GI50 up to about 1.1 µM and inactive = higher.

How the values were obtained:
Test in all cases: NCI-60 cell line screen, 48 h
SK-OV-3 = tested on: SK-OV-3
OVCAR-4 = tested on: OVCAR-4
SW-620 = tested on: SW-620
CAKI-1 = tested on: CAKI-1
U-251 = tested on: U-251
HOP-92 = tested on: HOP-92
UO-31 = tested on: UO-31
Hs-578T = tested on: Hs-578T
HCT-116 = tested on: HCT-116
UACC-62 = tested on: UACC-62
SR = tested on: SR
OVCAR-3 = tested on: OVCAR-3
BT-549 = tested on: BT-549
SNB-19 = tested on: SNB-19
HL-60 = tested on: HL-60
RPMI-8226 = tested on: RPMI-8226
SN12C = tested on: SN12C
A498 = tested on: A498
M14 = tested on: M14
DMS-273 = tested on: DMS-273

Compound | GI50 (SK-OV-3) | GI50 (OVCAR-4) | GI50 (SW-620) | GI50 (CAKI-1) | GI50 (U-251) | GI50 (HOP-92) | GI50 (UO-31) | GI50 (Hs-578T) | GI50 (HCT-116) | GI50 (UACC-62) | GI50 (SR) | GI50 (OVCAR-3) | GI50 (BT-549) | GI50 (SNB-19) | GI50 (HL-60) | GI50 (RPMI-8226) | GI50 (SN12C) | GI50 (A498) | GI50 (M14) | GI50 (DMS-273)
C[Si](C)(C)OC1(C#N)c2ccccc2CCCC12CCCC2 (configuration not stated) | > 100 µM (inactive) | 80 µM (inactive) | 44.9 µM (inactive) | > 100 µM (inactive) | 29.4 µM (inactive) | 29.1 µM (inactive) | 99.5 µM (inactive) | 62.1 µM (inactive) | 26.6 µM (inactive) | 80.2 µM (inactive) | 29.6 µM (inactive) | 46 µM (inactive) | > 100 µM (inactive) | 44 µM (inactive) | 17.8 µM (inactive) | 21.6 µM (inactive) | 59.4 µM (inactive) | 46.6 µM (inactive) | 48.3 µM (inactive) | –
CC(=O)OCC1OC(O[C@@H]2C[C@H]3C(C)(C)[C@H](OC(C)=O)CC[C@]3(C)[C@H]3CC[C@@]45C[C@H](O)C[C@H](C)[C@@H]4CC=C5[C@@]32C)C(O)C(O)C1O (some centres not stated) | 9.12 µM (inactive) | 4.21 µM (inactive) | 4.18 µM (inactive) | 11.6 µM (inactive) | 3.04 µM (inactive) | 4.01 µM (inactive) | 13.1 µM (inactive) | 4.6 µM (inactive) | 2.08 µM (inactive) | 4.12 µM (inactive) | 2.07 µM (inactive) | 3.75 µM (inactive) | 5.3 µM (inactive) | 4.02 µM (inactive) | 1.84 µM (inactive) | 2.42 µM (inactive) | 4.08 µM (inactive) | 6.67 µM (inactive) | 4.06 µM (inactive) | –
COc1cccc(NC(=O)CC(=O)n2nc(-c3ccccc3)c(/N=N/c3ccc(Cl)cc3)c2-c2ccccc2)c1 | 5.33 µM (inactive) | 36.4 µM (inactive) | 36.1 µM (inactive) | 36.6 µM (inactive) | 7.87 µM (inactive) | 18.7 µM (inactive) | 10.2 µM (inactive) | 26.2 µM (inactive) | 19.4 µM (inactive) | 14.2 µM (inactive) | 11 µM (inactive) | 22.1 µM (inactive) | 11.8 µM (inactive) | 17.8 µM (inactive) | 6.43 µM (inactive) | 12 µM (inactive) | 18.6 µM (inactive) | 25.6 µM (inactive) | 15.2 µM (inactive) | –
Cc1c2cccc-2ccc2c3ccccc3n(C(=O)c3ccc(Cl)cc3)c12 | > 100 µM (inactive) | > 100 µM (inactive) | > 100 µM (inactive) | > 100 µM (inactive) | > 100 µM (inactive) | > 100 µM (inactive) | > 100 µM (inactive) | > 91.2 µM (inactive) | 96.8 µM (inactive) | > 100 µM (inactive) | > 63.7 µM (inactive) | > 100 µM (inactive) | > 100 µM (inactive) | > 100 µM (inactive) | > 82.6 µM (inactive) | 45.1 µM (inactive) | > 100 µM (inactive) | > 100 µM (inactive) | > 100 µM (inactive) | –
CC1(C)OC[C@@H](/C=C\CCO[Si](c2ccccc2)(c2ccccc2)C(C)(C)C)N1C(=O)c1ccccc1 | 48.2 µM (inactive) | 7.76 µM (inactive) | 14.5 µM (inactive) | 9.4 µM (inactive) | 12.7 µM (inactive) | 14.4 µM (inactive) | 11.9 µM (inactive) | 12.5 µM (inactive) | 3.41 µM (inactive) | 9.91 µM (inactive) | 2.79 µM (inactive) | 7.5 µM (inactive) | 18.5 µM (inactive) | 17.9 µM (inactive) | 2.51 µM (inactive) | 2.86 µM (inactive) | 11.1 µM (inactive) | 13.9 µM (inactive) | 7.08 µM (inactive) | –
Cc1ccc(/N=N/c2ccc(O)c(CN(C)C)c2)cc1 | 32.7 µM (inactive) | 22.6 µM (inactive) | 20.7 µM (inactive) | 21.5 µM (inactive) | 32.1 µM (inactive) | 12.6 µM (inactive) | 16 µM (inactive) | 18.5 µM (inactive) | 22.5 µM (inactive) | 20.3 µM (inactive) | 24.8 µM (inactive) | 15.7 µM (inactive) | 23.1 µM (inactive) | 36.6 µM (inactive) | 18.1 µM (inactive) | 17.8 µM (inactive) | 35.8 µM (inactive) | 19.1 µM (inactive) | 21.9 µM (inactive) | –
COC(=O)[C@@H](NC(=O)[C@H](N)Cc1ccc(N(CCCl)CCCl)cc1)C(C)C | 32.7 µM (inactive) | 13.1 µM (inactive) | 11 µM (inactive) | 0.481 µM (active) | 19.4 µM (inactive) | 1.63 µM (inactive) | 12 µM (inactive) | 26.2 µM (inactive) | 15 µM (inactive) | 2.39 µM (inactive) | 0.53 µM (active) | 6.38 µM (inactive) | 23.4 µM (inactive) | > 54.1 µM (inactive) | 1.32 µM (inactive) | 5.3 µM (inactive) | 13.9 µM (inactive) | 18.7 µM (inactive) | 8.17 µM (inactive) | –
C1=CC2C=CC(C=C1)P2c1ccccc1 (configuration not stated) | > 100 µM (inactive) | > 100 µM (inactive) | > 100 µM (inactive) | > 100 µM (inactive) | > 100 µM (inactive) | > 100 µM (inactive) | > 100 µM (inactive) | > 100 µM (inactive) | > 100 µM (inactive) | > 100 µM (inactive) | > 100 µM (inactive) | > 100 µM (inactive) | > 100 µM (inactive) | > 100 µM (inactive) | > 100 µM (inactive) | > 100 µM (inactive) | > 100 µM (inactive) | > 100 µM (inactive) | > 100 µM (inactive) | –
CC1=NN(C(=O)CC(=O)Nc2cccc(C)c2)C(=O)C1/N=N\c1ccc(S(=O)(=O)c2ccc(/N=N/C3C(=O)N(C(=O)CC(=O)Nc4cccc(C)c4)N=C3C)cc2)cc1 (configuration not stated) | > 100 µM (inactive) | > 100 µM (inactive) | > 100 µM (inactive) | > 100 µM (inactive) | > 100 µM (inactive) | > 100 µM (inactive) | > 100 µM (inactive) | > 100 µM (inactive) | > 100 µM (inactive) | > 100 µM (inactive) | > 100 µM (inactive) | > 100 µM (inactive) | > 100 µM (inactive) | > 100 µM (inactive) | > 100 µM (inactive) | > 100 µM (inactive) | > 100 µM (inactive) | > 100 µM (inactive) | > 100 µM (inactive) | –
CN(C)CCCNC(=O)N/N=C/c1cccc([N+](=O)[O-])c1 | > 100 µM (inactive) | > 100 µM (inactive) | > 100 µM (inactive) | – | > 100 µM (inactive) | – | – | – | > 100 µM (inactive) | > 100 µM (inactive) | – | > 100 µM (inactive) | – | > 100 µM (inactive) | – | – | > 100 µM (inactive) | – | > 100 µM (inactive) | > 100 µM (inactive)
COc1ccc(C(C)NNC(=O)c2ccncc2)c(OC)c1 (configuration not stated) | > 100 µM (inactive) | > 100 µM (inactive) | > 100 µM (inactive) | > 100 µM (inactive) | > 100 µM (inactive) | > 100 µM (inactive) | > 100 µM (inactive) | > 100 µM (inactive) | > 100 µM (inactive) | > 100 µM (inactive) | > 100 µM (inactive) | > 100 µM (inactive) | > 100 µM (inactive) | > 100 µM (inactive) | > 100 µM (inactive) | > 100 µM (inactive) | > 100 µM (inactive) | > 100 µM (inactive) | > 100 µM (inactive) | –
CCO/N=C\c1ccc2oc(-c3ccccc3)cc(=O)c2c1 | 0.474 µM (active) | 5.51 µM (inactive) | 0.129 µM (active) | 0.427 µM (active) | 0.628 µM (active) | 3.26 µM (inactive) | 0.394 µM (active) | 0.402 µM (active) | 0.181 µM (active) | 0.194 µM (active) | < 0.0135 µM (active) | 0.0778 µM (active) | 1.06 µM (active) | 0.48 µM (active) | 0.135 µM (active) | 0.215 µM (active) | 0.303 µM (active) | 0.312 µM (active) | 0.172 µM (active) | –
CCN(CC)CCOc1ccc(N2Cc3cc(OC)c(OC)cc3C2=O)cc1 | > 100 µM (inactive) | > 100 µM (inactive) | > 100 µM (inactive) | > 100 µM (inactive) | > 100 µM (inactive) | > 100 µM (inactive) | < 0.01 µM (active) | > 100 µM (inactive) | > 100 µM (inactive) | > 100 µM (inactive) | > 100 µM (inactive) | > 100 µM (inactive) | > 100 µM (inactive) | > 100 µM (inactive) | > 100 µM (inactive) | > 100 µM (inactive) | > 100 µM (inactive) | > 100 µM (inactive) | > 100 µM (inactive) | –
CC(C)(C)c1cc(CCC(=O)Nc2ccc(Cl)cc2)nc(S)n1 | > 100 µM (inactive) | > 100 µM (inactive) | > 100 µM (inactive) | > 100 µM (inactive) | > 100 µM (inactive) | – | > 100 µM (inactive) | – | – | > 100 µM (inactive) | – | > 100 µM (inactive) | – | > 100 µM (inactive) | > 100 µM (inactive) | > 100 µM (inactive) | > 100 µM (inactive) | – | > 100 µM (inactive) | > 100 µM (inactive)
Cc1ccc(O)c(-c2csc(NCN3CCN(CNc4nc(-c5cc(C)ccc5O)cs4)CC3)n2)c1 | > 100 µM (inactive) | > 100 µM (inactive) | 77.3 µM (inactive) | > 100 µM (inactive) | > 100 µM (inactive) | > 100 µM (inactive) | > 100 µM (inactive) | > 100 µM (inactive) | > 100 µM (inactive) | > 100 µM (inactive) | > 100 µM (inactive) | > 100 µM (inactive) | > 100 µM (inactive) | > 100 µM (inactive) | > 100 µM (inactive) | 25.2 µM (inactive) | > 100 µM (inactive) | > 100 µM (inactive) | > 100 µM (inactive) | –
